± gives the uncertainty stated by the source.
Experiment: xn = mol fraction of the nth substance listed

Compound: BrC(Br)Br + C1CCCCC1
- viscosity (298 K, 101.3 kPa, x1 = 0.1851): 0.959 ± 0.01 mPa·s
- viscosity (298 K, 101.3 kPa, x1 = 0.3428): 1.071 ± 0.012 mPa·s
- viscosity (298 K, 101.3 kPa, x1 = 0.5486): 1.258 ± 0.014 mPa·s
- viscosity (298 K, 101.3 kPa, x1 = 0.6899): 1.409 ± 0.017 mPa·s
- viscosity (298 K, 101.3 kPa, x1 = 0.8718): 1.67 ± 0.021 mPa·s
- viscosity (318 K, 101.33 kPa, x1 = 0.1747): 0.7236 ± 0.039 mPa·s
- viscosity (318 K, 101.33 kPa, x1 = 0.3427): 0.82 ± 0.039 mPa·s
- viscosity (318 K, 101.33 kPa, x1 = 0.5476): 0.9769 ± 0.039 mPa·s
- viscosity (318 K, 101.33 kPa, x1 = 0.6911): 1.113 ± 0.039 mPa·s
- viscosity (318 K, 101.33 kPa, x1 = 0.8747): 1.309 ± 0.039 mPa·s

Compound: BrC(Br)Br + CCCC#N
- viscosity (298.15 K, 101 kPa, x1 = 0.09373): 0.6216 ± 0.041 mPa·s
- viscosity (298.15 K, 101 kPa, x1 = 0.2439): 0.8407 ± 0.041 mPa·s
- viscosity (298.15 K, 101 kPa, x1 = 0.3911): 1.021 ± 0.042 mPa·s
- viscosity (298.15 K, 101 kPa, x1 = 0.4986): 1.169 ± 0.042 mPa·s
- viscosity (298.15 K, 101 kPa, x1 = 0.7): 1.46 ± 0.043 mPa·s
- viscosity (298.15 K, 101 kPa, x1 = 0.9): 1.724 ± 0.045 mPa·s

Compound: CCC(C)(C)OC + Cc1cccc(C)c1
- viscosity (293.15 K, 100 kPa, x1 = 0.0521): 0.603 ± 0.03 mPa·s
- viscosity (293.15 K, 100 kPa, x1 = 0.1462): 0.584 ± 0.03 mPa·s
- viscosity (293.15 K, 100 kPa, x1 = 0.2667): 0.563 ± 0.03 mPa·s
- viscosity (293.15 K, 100 kPa, x1 = 0.4165): 0.539 ± 0.03 mPa·s
- viscosity (293.15 K, 100 kPa, x1 = 0.4774): 0.53 ± 0.03 mPa·s
- viscosity (293.15 K, 100 kPa, x1 = 0.5331): 0.521 ± 0.03 mPa·s
- viscosity (293.15 K, 100 kPa, x1 = 0.6068): 0.509 ± 0.03 mPa·s
- viscosity (293.15 K, 100 kPa, x1 = 0.7371): 0.487 ± 0.03 mPa·s
- viscosity (293.15 K, 100 kPa, x1 = 0.8642): 0.464 ± 0.03 mPa·s
- viscosity (293.15 K, 100 kPa, x1 = 0.9512): 0.448 ± 0.03 mPa·s
- viscosity (303.15 K, 100 kPa, x1 = 0.0521): 0.542 ± 0.03 mPa·s
- viscosity (303.15 K, 100 kPa, x1 = 0.1462): 0.531 ± 0.03 mPa·s
- viscosity (303.15 K, 100 kPa, x1 = 0.2667): 0.518 ± 0.03 mPa·s
- viscosity (303.15 K, 100 kPa, x1 = 0.4165): 0.499 ± 0.03 mPa·s
- viscosity (303.15 K, 100 kPa, x1 = 0.4774): 0.489 ± 0.03 mPa·s
- viscosity (303.15 K, 100 kPa, x1 = 0.5331): 0.48 ± 0.03 mPa·s
- viscosity (303.15 K, 100 kPa, x1 = 0.6068): 0.468 ± 0.03 mPa·s
- viscosity (303.15 K, 100 kPa, x1 = 0.7371): 0.447 ± 0.03 mPa·s
- viscosity (303.15 K, 100 kPa, x1 = 0.8642): 0.426 ± 0.03 mPa·s
- viscosity (303.15 K, 100 kPa, x1 = 0.9512): 0.417 ± 0.03 mPa·s
- viscosity (313.15 K, 100 kPa, x1 = 0.0521): 0.484 ± 0.03 mPa·s
- viscosity (313.15 K, 100 kPa, x1 = 0.1462): 0.47 ± 0.03 mPa·s
- viscosity (313.15 K, 100 kPa, x1 = 0.2667): 0.455 ± 0.03 mPa·s
- viscosity (313.15 K, 100 kPa, x1 = 0.4165): 0.439 ± 0.03 mPa·s
- viscosity (313.15 K, 100 kPa, x1 = 0.4774): 0.433 ± 0.03 mPa·s
- viscosity (313.15 K, 100 kPa, x1 = 0.5331): 0.427 ± 0.03 mPa·s
- viscosity (313.15 K, 100 kPa, x1 = 0.6068): 0.419 ± 0.03 mPa·s
- viscosity (313.15 K, 100 kPa, x1 = 0.7371): 0.404 ± 0.03 mPa·s
- viscosity (313.15 K, 100 kPa, x1 = 0.8642): 0.386 ± 0.03 mPa·s
- viscosity (313.15 K, 100 kPa, x1 = 0.9512): 0.375 ± 0.03 mPa·s

Compound: BrC(Br)Br + Nc1ccccc1
- viscosity (298.15 K, 101 kPa, x1 = 0.1402): 3.373 ± 0.055 mPa·s
- viscosity (298.15 K, 101 kPa, x1 = 0.2067): 3.235 ± 0.054 mPa·s
- viscosity (298.15 K, 101 kPa, x1 = 0.3151): 3.026 ± 0.053 mPa·s
- viscosity (298.15 K, 101 kPa, x1 = 0.4133): 2.856 ± 0.051 mPa·s
- viscosity (298.15 K, 101 kPa, x1 = 0.5137): 2.657 ± 0.05 mPa·s
- viscosity (298.15 K, 101 kPa, x1 = 0.614): 2.486 ± 0.049 mPa·s
- viscosity (298.15 K, 101 kPa, x1 = 0.701): 2.349 ± 0.048 mPa·s
- viscosity (298.15 K, 101 kPa, x1 = 0.808): 2.196 ± 0.047 mPa·s

Compound: BrC(Br)Br + CCCCCCCCCO
- viscosity (298.15 K, 101.3 kPa, x1 = 0.105): 7.847 ± 0.086 mPa·s
- viscosity (298.15 K, 101.3 kPa, x1 = 0.299): 5.743 ± 0.067 mPa·s
- viscosity (298.15 K, 101.3 kPa, x1 = 0.404): 5.079 ± 0.06 mPa·s
- viscosity (298.15 K, 101.3 kPa, x1 = 0.504): 4.228 ± 0.051 mPa·s
- viscosity (298.15 K, 101.3 kPa, x1 = 0.604): 3.571 ± 0.043 mPa·s
- viscosity (298.15 K, 101.3 kPa, x1 = 0.704): 2.984 ± 0.037 mPa·s
- viscosity (298.15 K, 101.3 kPa, x1 = 0.802): 2.492 ± 0.031 mPa·s
- viscosity (298.15 K, 101.3 kPa, x1 = 0.903): 2.12 ± 0.026 mPa·s
- viscosity (303.15 K, 101.3 kPa, x1 = 0.105): 6.517 ± 0.074 mPa·s
- viscosity (303.15 K, 101.3 kPa, x1 = 0.299): 4.87 ± 0.058 mPa·s
- viscosity (303.15 K, 101.3 kPa, x1 = 0.404): 4.38 ± 0.053 mPa·s
- viscosity (303.15 K, 101.3 kPa, x1 = 0.504): 3.693 ± 0.045 mPa·s
- viscosity (303.15 K, 101.3 kPa, x1 = 0.604): 3.151 ± 0.038 mPa·s
- viscosity (303.15 K, 101.3 kPa, x1 = 0.704): 2.669 ± 0.033 mPa·s
- viscosity (303.15 K, 101.3 kPa, x1 = 0.802): 2.266 ± 0.028 mPa·s
- viscosity (303.15 K, 101.3 kPa, x1 = 0.903): 1.963 ± 0.025 mPa·s
- viscosity (308.15 K, 101.3 kPa, x1 = 0.105): 5.421 ± 0.064 mPa·s
- viscosity (308.15 K, 101.3 kPa, x1 = 0.299): 4.144 ± 0.05 mPa·s
- viscosity (308.15 K, 101.3 kPa, x1 = 0.404): 3.777 ± 0.046 mPa·s
- viscosity (308.15 K, 101.3 kPa, x1 = 0.504): 3.24 ± 0.04 mPa·s
- viscosity (308.15 K, 101.3 kPa, x1 = 0.604): 2.802 ± 0.034 mPa·s
- viscosity (308.15 K, 101.3 kPa, x1 = 0.704): 2.399 ± 0.03 mPa·s
- viscosity (308.15 K, 101.3 kPa, x1 = 0.802): 2.065 ± 0.026 mPa·s
- viscosity (308.15 K, 101.3 kPa, x1 = 0.903): 1.818 ± 0.023 mPa·s

Compound: CC(C)(C)N + CCOC(C)=O
- viscosity (303.15 K, 101 kPa, x1 = 0.168): 0.4142 ± 0.0037 mPa·s
- viscosity (303.15 K, 101 kPa, x1 = 0.2336): 0.4185 ± 0.0037 mPa·s
- viscosity (303.15 K, 101 kPa, x1 = 0.3514): 0.424 ± 0.0037 mPa·s
- viscosity (303.15 K, 101 kPa, x1 = 0.5046): 0.4329 ± 0.0038 mPa·s
- viscosity (303.15 K, 101 kPa, x1 = 0.5951): 0.4363 ± 0.0038 mPa·s
- viscosity (303.15 K, 101 kPa, x1 = 0.6618): 0.4371 ± 0.0038 mPa·s
- viscosity (303.15 K, 101 kPa, x1 = 0.8008): 0.442 ± 0.0039 mPa·s
- viscosity (303.15 K, 101 kPa, x1 = 0.8723): 0.4431 ± 0.0039 mPa·s

Compound: C=Cc1ccccc1 + CCCCCC
- viscosity (298.15 K, 101.33 kPa, x1 = 0.1019): 0.314 ± 0.01 mPa·s
- viscosity (298.15 K, 101.33 kPa, x1 = 0.1987): 0.334 ± 0.01 mPa·s
- viscosity (298.15 K, 101.33 kPa, x1 = 0.3024): 0.362 ± 0.01 mPa·s
- viscosity (298.15 K, 101.33 kPa, x1 = 0.4003): 0.385 ± 0.01 mPa·s
- viscosity (298.15 K, 101.33 kPa, x1 = 0.4992): 0.417 ± 0.01 mPa·s
- viscosity (298.15 K, 101.33 kPa, x1 = 0.6023): 0.457 ± 0.011 mPa·s
- viscosity (298.15 K, 101.33 kPa, x1 = 0.7055): 0.507 ± 0.011 mPa·s
- viscosity (298.15 K, 101.33 kPa, x1 = 0.8021): 0.566 ± 0.011 mPa·s
- viscosity (298.15 K, 101.33 kPa, x1 = 0.8935): 0.632 ± 0.011 mPa·s
- viscosity (303.15 K, 101.33 kPa, x1 = 0.1019): 0.302 ± 0.01 mPa·s
- viscosity (303.15 K, 101.33 kPa, x1 = 0.1987): 0.319 ± 0.01 mPa·s
- viscosity (303.15 K, 101.33 kPa, x1 = 0.3024): 0.346 ± 0.01 mPa·s
- viscosity (303.15 K, 101.33 kPa, x1 = 0.4003): 0.367 ± 0.01 mPa·s
- viscosity (303.15 K, 101.33 kPa, x1 = 0.4992): 0.397 ± 0.01 mPa·s
- viscosity (303.15 K, 101.33 kPa, x1 = 0.6023): 0.436 ± 0.011 mPa·s
- viscosity (303.15 K, 101.33 kPa, x1 = 0.7055): 0.482 ± 0.011 mPa·s
- viscosity (303.15 K, 101.33 kPa, x1 = 0.8021): 0.534 ± 0.011 mPa·s
- viscosity (303.15 K, 101.33 kPa, x1 = 0.8935): 0.597 ± 0.011 mPa·s
- viscosity (308.15 K, 101.33 kPa, x1 = 0.1019): 0.29 ± 0.01 mPa·s
- viscosity (308.15 K, 101.33 kPa, x1 = 0.1987): 0.305 ± 0.01 mPa·s
- viscosity (308.15 K, 101.33 kPa, x1 = 0.3024): 0.328 ± 0.01 mPa·s
- viscosity (308.15 K, 101.33 kPa, x1 = 0.4003): 0.351 ± 0.01 mPa·s
- viscosity (308.15 K, 101.33 kPa, x1 = 0.4992): 0.379 ± 0.01 mPa·s
- viscosity (308.15 K, 101.33 kPa, x1 = 0.6023): 0.412 ± 0.01 mPa·s
- viscosity (308.15 K, 101.33 kPa, x1 = 0.7055): 0.455 ± 0.011 mPa·s
- viscosity (308.15 K, 101.33 kPa, x1 = 0.8021): 0.505 ± 0.011 mPa·s
- viscosity (308.15 K, 101.33 kPa, x1 = 0.8935): 0.56 ± 0.011 mPa·s

— the CheMixHub viscosity set
